In paper PMC8032624, “Prediction of dose-dependent in vivo acetylcholinesterase inhibition by profenofos in rats and humans using physiologically based kinetic (PBK) modeling-facilitated reverse dosimetry” (Archives of Toxicology, 2021):

Columns and labels:
rat = details: oral administration, ref JMPR [2007]; cited from earlier work
AChE [1] = test: PBK modeling-facilitated reverse dosimetry and BMD modelling of predicted AChE inhibition in rats; parameters: species or system rat
Excerpt: (§1) In the present study, it was assumed that in vivo dose-dependent AChE inhibition (in blood) depends on the maximum concentration (Cmax) of profenofos reached in the blood. For adequate PBK modeling-facilitated reverse dosimetry, the active (unbound) concentration of a test chemical in the in vitro test system should be linked to the in vivo freely available chemical at the target site. This is important since it is assumed that it is the fraction unbound that causes the effect (AChE inhibition). In the in vitro incubations, a very low concentration of BSA (0.1 mg/mL) is present. Heilmair et al. ([2008]) reported that with such low BSA concentrations, the free concentration of chlorpyrifos oxon is not affected. Furthermore, Rosenfeld and Sultatos ([2006]) found no evidence of binding of paraoxon by BSA even at a higher concentration (1 mg/ml) during incubations. Based on these observations, no significant effect on the free fraction of profenofos in the in vitro AChE inhibition studies is expected, which corroborated with estimations on profenofos binding in the in vitro incubations with help of the online simcyp tool (https://www.certara.com/software/pbpk-modeling-and-simulation/).
By calculating with the PBK model, the external dose required to reach (as unbound Cmax) the concentrations applied in the in vitro test, each in vitro concentration was translated into an in vivo dose. In this way, the concentration–response curves for rat and human AChE inhibition were converted into in vivo dose–response curves for profenofos-induced AChE inhibition in rats and humans, respectively.
To evaluate the performance of the PBK modeling-facilitated reverse dosimetry approach to predict in vivo AChE inhibition, the predicted dose–response curve for rat AChE inhibition upon exposure to profenofos was compared with available in vivo data on AChE inhibition in rats (JMPR [2007]). […]

AChE [2] = test: PBK modeling-facilitated reverse dosimetry and BMD modelling of predicted AChE inhibition in humans; parameters: species or system human
Excerpt: as §1
By calculating with the PBK model, the external dose required to reach (as unbound Cmax) the concentrations applied in the in vitro test, each in vitro concentration was translated into an in vivo dose. […]

[3] = Control incubations without microsomes, cytosol or plasma (spontaneous hydrolysis); format: physicochemical; details: 100 mM Tris HCl pH 7.4, 37 °C, 2 min, no enzyme preparation
Procedure: Incubations of profenofos with rat and human liver microsomes, liver cytosol and plasma were performed to quantify in vitro rates of BCP formation. Conditions were optimized to be linear for metabolite formation with regard to incubation time and microsomal, cytosolic and plasma protein concentration (data not shown). […] The mixture was centrifuged at 14,000g for 20 min at 4 °C and the supernatant was analyzed using UPLC-UV.
The conversion of profenofos to BCP was measured in incubations with both rat and human liver microsomes, cytosol and plasma. […] In control incubations, small amounts (max 0.04% of the amount of profenofos added) of BCP were detected, indicating some spontaneous hydrolysis of profenofos in the aqueous environment, which has also been observed in previous studies (Aly and Badawy [1982]). The BCP formation data for microsomes, cytosol and plasma were, therefore, corrected for BCP levels detected in control incubations.

[4] = system: AChE of human erythrocytes; details: freshly obtained human erythrocytes; ref Das and Jamil [2006]; read-out: IC50 AChE inhibition; cited from earlier work

CCCSP(=O)(OCC)Oc1ccc(Br)cc1Cl (stereo not shown) [profenofos, O-(4-bromo-2-chlorophenyl) O-ethyl S-propyl phosphorothioate]
LD50 (rat): 358 to 1178 mg/kg | JMPR NOAEL relative to BMDL10 from predicted rat dose-response data (AChE [1]): 200 fold | Predicted rat BMDL10 relative to EFSA ARfD (AChE [1]): ~ 100 fold | US EPA BMDL10 relative to BMDL10 from predicted rat dose-response data (AChE [1]): 4 times | Interspecies difference in predicted BMDL10 (rat vs human) (AChE [2]): 45 fold | BCP detected in control incubations (spontaneous hydrolysis) [3]: ≤ 0.04 % of the amount of profenofos added | IC50 [4]: 350 nM
